Source: patent publication US12606578B2, “Crystal form of spirocyclic amine aryl phosphorus oxide compound and preparation method therefor” (Qilu Pharmaceutical Co., LTD., priority 2022, dated 2026)
Converted amounts (≈) assume the structure as drawn.

What was measured:
[1] = Flow ability test (bulk density, tap density, Carr index); format: physicochemical
Method: The tap density was measured by SVM203 Tapped Density Meter.
Bulk density and tap density of bulk drugs with different crystal forms and particle sizes were tested, and Carr index was calculated.
Therefore, compared with the crystal form A, the crystal form Q4 has obvious advantages in terms of powder mixing uniformity of bulk drugs and the preparation of solid preparations.

[2] = Equilibrium solubility in four media with XRPD of the solids; format: physicochemical; details: for solubility at 24 h: 37 °C, thermodynamic from solid; for solubility at 24 h / Solubility: 200 rpm; for Crystal transformation before and after the solubility test: four media, XRPD; for Crystal transformation before and after the solubility test / Solubility: 37° C.; for solubility at 24 h / Crystal transformation before and after the solubility test / Solubility: 24 h
Method: At 37° C., appropriate amounts of the crystal form Q4 and crystal form A of the compound of Formula (I) were taken and dispersed in water, artificial gastric fluid (SGF, Simulated Gastric Fluid), artificial intestinal fluid under fed state (FeSSIF, Fed State Simulated Intestinal Fluid) and artificial intestinal fluid under fasted state (FaSSIF, Fasted State Simulated Intestinal Fluid) respectively to prepare suspension, and after equilibration at 200 rpm for 24 h, the content (mg/mL) of the sample in the solution were tested by HPLC and the samples in the solution were tested by XRPD, respectively.

[3] = Particle size analysis (PSA); format: physicochemical
Method: Malvern's laser scattering particle size distribution analyzer was used to analyze the particle size of solid powder. An appropriate amount of solid powder was taken into a sampler, the samples were tested according to the parameters listed in Table 5, and the data was analyzed by Mastersizer-v3.60.

[4] = disclosed in reference CN110407877, 90% RH; cited from earlier work
[5] = Stability test under high temperature, high humidity and light (HPLC purity, XRPD); format: physicochemical; details: for Purity: HPLC; for Crystal form: XRPD
Method: Determination of HPLC is performed by Waters e2695 high performance liquid chromatograph to analyze the samples.
The stability of the crystal form Q4 of the compound of Formula (I) under high temperature, high humidity and light conditions was investigated. After placing for 5 days and 10 days under specific conditions, purity was tested by HPLC, and XRPD was performed.

[6] = Hydroscopicity experiment (DVS water sorption/desorption); format: physicochemical
From the text: Description of hydroscopicity characteristics and definition of hygroscopic weight gain (Chinese Pharmacopoeia 2020 Edition, General Chapter 9103, Guidelines for Hydroscopicity Trials for Pharmaceuticals): • Deliquescence: absorb enough water to form liquid; • Extremely hygroscopic: the hygroscopic weight gain is not less than 15.0%; • Hygroscopic: hygroscopic weight gain is less than 15.0% but not less than 2.0%; • Mild hygroscopic: hygroscopic weight gain is less than 2.0% but not less than 0.2%; • Non-or almost non-hygroscopic: the hygroscopic weight gain is less than 0.2%.
The hydroscopicity of the samples was determined using a DVS Intrinsic dynamic vapor sorption analyzer. The samples were placed in a peeled sample basket, the instrument weighed automatically, and the samples were analyzed according to the parameters in Table 4.
According to “Guidelines for Hydroscopicity Trials for Pharmaceuticals” in Chinese Pharmacopoeia 2020 Edition, the data of water sorption/desorption of the crystal form Q4 of the compound of Formula (I) were tested.

[7] = bulk drug D90 69.2 μm (Q4), 62 μm (A)
[8] = bulk drugs of substantially the same particle size used in flow ability test

## COc1cc(N2CCC3(CCN(C)CC3)CC2)ccc1Nc1ncc(Cl)c(Nc2ccccc2P(C)(C)=O)n1 [Crystal form A, reference compound]
[1]; [7]
  Bulk density: 0.48 g/mL
  Carr index: (tap density-bulk density)/tap density: 31.43%
  Evaluation (flow ability): poor flow
  Tap density: 0.70 g/mL
[2]; fasted state simulated intestinal fluid (FaSSIF), pH 6.5, fassif, FaSSIF (pH 6.5)
  solubility at 24 h: 4560 µg/mL (≈ 8.01 mM)
[2]; fed state simulated intestinal fluid (FeSSIF), pH 5, fessif, FeSSIF (pH 5.0)
  solubility at 24 h: 23600 µg/mL (≈ 41.5 mM)
[2]
  Crystal transformation before and after the solubility test: do not transform before and after the test
[2]; simulated gastric fluid (SGF), pH 1.8, simulated gastric fluid, SGF (pH 1.8)
  solubility at 24 h: 9300 µg/mL (≈ 16.3 mM)
[2]; water
  solubility at 24 h: 40 µg/mL (≈ 0.0703 mM)
[3]; [8]
  Particle size of bulk D90: 62 μm
[4]
  Weight gain under 90% RH humidity condition: 0.17%

## COc1cc(N2CCC3(CCN(C)CC3)CC2)ccc1Nc1ncc(Cl)c(Nc2ccccc2P(C)(C)=O)n1 [Crystal form B]
[4]
  Weight gain under 90% RH humidity condition: 0.70%

## COc1cc(N2CCC3(CCN(C)CC3)CC2)ccc1Nc1ncc(Cl)c(Nc2ccccc2P(C)(C)=O)n1 [Crystal form C]
[4]
  Weight gain under 90% RH humidity condition: 0.62%

## COc1cc(N2CCC3(CCN(C)CC3)CC2)ccc1Nc1ncc(Cl)c(Nc2ccccc2P(C)(C)=O)n1 [Crystal form Q4]
[1]; [7]
  Bulk density: 0.28 g/mL
  Carr index: (tap density-bulk density)/tap density: 24.32%
  Evaluation (flow ability): fair flow
  Tap density: 0.37 g/mL
[1]; bulk drug D90 145.2 μm
  Bulk density: 0.42 g/mL
  Carr index: (tap density-bulk density)/tap density: 17.65%
  Evaluation (flow ability): good or medium (16 to 20%)
  Tap density: 0.51 g/mL
[1]; substantially the same particle size
  Flow ability compared with the crystal form A: better flow ability compared with the crystal form A
[5]; 40° C.-5 D
  Related substances: Impurity LG RRT = 1.98: 0.04%
  Related substances: Impurity LO RRT = 0.89: 0.01%
  Related substances: Impurity LP RRT = 1.16: 0.02%
  Related substances: Impurity QA RRT = 0.95: 0.01%
  Purity: 99.88%
  Crystal form: form Q4
[5]; 40° C.-10 D
  Related substances: Impurity LG RRT = 1.98: 0.04%
  Related substances: Impurity LO RRT = 0.89: 0.01%
  Related substances: Impurity LP RRT = 1.16: 0.03%
  Related substances: Impurity QA RRT = 0.95: 0.01%
  Purity: 99.87%
  Crystal form: form Q4
[5]; 60° C.-5 D
  Related substances: Impurity LG RRT = 1.98: 0.04%
  Related substances: Impurity LO RRT = 0.89: 0.01%
  Related substances: Impurity LP RRT = 1.16: 0.02%
  Related substances: Impurity QA RRT = 0.95: 0.01%
  Purity: 99.86%
  Crystal form: form Q4
[5]; 60° C.-10 D
  Related substances: Impurity LG RRT = 1.98: 0.04%
  Related substances: Impurity LO RRT = 0.89: 0.01%
  Related substances: Impurity LP RRT = 1.16: 0.02%
  Related substances: Impurity QA RRT = 0.95: 0.01%
  Purity: 99.88%
  Crystal form: form Q4
[5]; 75RH-5 D
  Related substances: Impurity LG RRT = 1.98: 0.04%
  Related substances: Impurity LO RRT = 0.89: 0.01%
  Related substances: Impurity LP RRT = 1.16: 0.01%
  Related substances: Impurity QA RRT = 0.95: 0.01%
  Purity: 99.88%
  Crystal form: form Q4
[5]; 75RH-10 D
  Related substances: Impurity LG RRT = 1.98: 0.04%
  Related substances: Impurity LO RRT = 0.89: 0.01%
  Related substances: Impurity LP RRT = 1.16: 0.02%
  Related substances: Impurity QA RRT = 0.95: 0.01%
  Purity: 99.88%
  Crystal form: form Q4
[5]; 90RH-5 D
  Related substances: Impurity LG RRT = 1.98: 0.04%
  Related substances: Impurity LO RRT = 0.89: 0.02%
  Related substances: Impurity LP RRT = 1.16: 0.01%
  Related substances: Impurity QA RRT = 0.95: 0.01%
  Purity: 99.87%
  Crystal form: form Q4
[5]; 90RH-10 D
  Related substances: Impurity LG RRT = 1.98: 0.04%
  Related substances: Impurity LO RRT = 0.89: 0.01%
  Related substances: Impurity LP RRT = 1.16: 0.03%
  Related substances: Impurity QA RRT = 0.95: 0.01%
  Purity: 99.83%
  Crystal form: form Q4
[5]; Light-5 D
  Related substances: Impurity LG RRT = 1.98: 0.04%
  Related substances: Impurity LO RRT = 0.89: 0.03%
  Related substances: Impurity LP RRT = 1.16: 0.02%
  Related substances: Impurity QA RRT = 0.95: 0.01%
  Purity: 99.82%
  Crystal form: form Q4
[5]; Light-10 D
  Related substances: Impurity LG RRT = 1.98: 0.03%
  Related substances: Impurity LO RRT = 0.89: 0.03%
  Related substances: Impurity LP RRT = 1.16: 0.02%
  Related substances: Impurity QA RRT = 0.95: 0.01%
  Purity: 99.86%
  Crystal form: form Q4
[5]; Start
  Related substances: Impurity LG RRT = 1.98: 0.03%
  Related substances: Impurity LO RRT = 0.89: 0.01%
  Related substances: Impurity LP RRT = 1.16: 0.02%
  Related substances: Impurity QA RRT = 0.95: 0.01%
  Purity: 99.90%
  Crystal form: form Q4
[5]; high temperature, high humidity and light conditions, 5 and 10 days
  Degradation / stability: no obvious degradation
[6]; Chinese Pharmacopoeia 2020 criteria, weight gain at 80% RH
  Evaluation of hydroscopicity: non- or almost non-hygroscopic
[6]; DVS, 80% RH
  80% RH weight gain: 0.10%
[6]; DVS, 90% RH
  90% RH weight gain: 0.12%
[6]; before and after DVS test
  Crystal transformation, XRPD before and after DVS test: no crystal transformation before and after the test
[6]; hygroscopic weight gain comparison
  Hydroscopicity compared with the crystal forms A, B and C: less hydroscopicity than the crystal forms A, B and C
[2]; FaSSIF
  Solubility compared with the crystal form A: better than that of the crystal form A
[2]; FaSSIF (pH 6.5)
  Solubility: 5750 µg/mL (≈ 10.1 mM)
[2]; FeSSIF (pH 5.0)
  Solubility: 23560 µg/mL (≈ 41.4 mM)
[2]; SGF (pH 1.8)
  Solubility: 9280 µg/mL (≈ 16.3 mM)
[2]; Water
  Solubility: 40 µg/mL (≈ 0.0703 mM)
[2]
  Crystal transformation before and after the solubility test: do not transform before and after the test
[3]; PSA, Example 3 batch
  D10: 10.8 μm
  D50: 62.6 μm
  D90: 145.2 μm
[3]; [8]
  Particle size of bulk D90: 69.2 μm
[3]; larger particle size Q4 bulk drug used in flow ability test
  Particle size of bulk D90: 145.2 μm
